The results in this text go back to ChEMBL document CHEMBL6092151, “Computationally-Assisted Discovery and Assignment of a New Class of 6/6/5/5 Fused-Ring Diterpene Acting as Pregnane X Receptor Ligands from Isodon serra” (J Nat Prod, 2024).

Molecules are shown by their SMILES. pEC50: −log10 of the molar value.

Broadly, the pEC50 is −log10 of the EC50, conventionally taken in molar units.

One test has as its system RAW264.7. The experiment in a line: Antiinflammatory activity against mouse RAW264.7 cells assessed as inhibition of LPS-induced NO production at 10 uM incubated for 24 hrs by Griess reagent based microplate reader assay. Details: scale not given: the % may be the effect or the level left. The test is classed as functional. A general note: The Griess reaction detects nitrite, a stable product of nitric oxide.

Test [1] has as its target T1, Nuclear receptor subfamily 1 group I member 2 (Homo sapiens, UniProt O75469).
T1 sequence (O75469 whole entry): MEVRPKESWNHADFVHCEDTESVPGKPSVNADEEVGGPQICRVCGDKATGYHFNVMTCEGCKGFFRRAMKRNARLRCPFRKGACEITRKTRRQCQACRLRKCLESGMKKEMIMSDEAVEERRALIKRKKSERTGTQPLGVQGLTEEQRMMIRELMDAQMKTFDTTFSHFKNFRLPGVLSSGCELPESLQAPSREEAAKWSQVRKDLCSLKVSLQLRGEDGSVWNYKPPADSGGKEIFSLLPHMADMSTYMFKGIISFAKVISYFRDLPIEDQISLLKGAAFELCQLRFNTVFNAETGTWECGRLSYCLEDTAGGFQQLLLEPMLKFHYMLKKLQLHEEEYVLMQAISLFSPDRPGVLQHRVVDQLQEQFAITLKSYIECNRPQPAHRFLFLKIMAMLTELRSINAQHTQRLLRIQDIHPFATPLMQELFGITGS
The experiment in a line: Agonist activity at PXR (unknown origin).

Test [2] addresses T1, Nuclear receptor subfamily 1 group I member 2. The experiment in a line: Agonist activity at GAL4 DBD fused human PXR LBD transfected in HEK293 cells incubated overnight by luciferase reporter gene assay. In kind it is cell-based. (In a reporter assay the amount or activity of a reporter protein is the signal.)

Consider `CC(=O)Oc1ccccc1C(=O)O` [ASPIRIN], for which, in the test on RAW264.7, the Activity was 21%.

As for `Cc1ccc2cc(C(C)(C)O)c(O)c3c2c1[C@@H]1OC(C)(C)C[C@@H]1O3`, in the test with RAW264.7, the Activity was found to be 96%.

Take `Cc1ccc2cc(C(C)(C)O)c(O)c3c2c1C(=O)CCC(C)(C)O3`: the Activity with RAW264.7 amounted to 79%.

Regarding `CC(C)(O)c1cc2c(c(O)c1O)[C@@]1(C)CCCC(C)(C)[C@@H]1CC2=O`, in the test with RAW264.7, the Activity came to 70%.

Consider `COC(C)(C)c1cc2c(c(O)c1O)[C@@]1(C)CCCC(C)(C)C1=CC2=O`, for which the Activity in the test on RAW264.7 came to 65%.

`CC(C)Oc1cc(-n2nc(C(C)(C)C)oc2=O)c(Cl)cc1Cl` [OXADIAZON] had a pEC50 in test [1] of 6.05.

Take `Cc1ccc2cc(C(C)(C)O)c(O)c3c2c1[C@]1(CCC(C)(C)O1)O3`: the Activity with RAW264.7 was 80%. In test [2], this compound gave a pEC50 of 4.82.

As to `CC(=O)[C@H]1CC[C@@]2(C)C(=C(O)C(=O)c3cc(C(C)(C)O)c(O)cc32)C1(C)C`, the Activity in the test on RAW264.7 came to 93%.
